# Source: publication PMC10932281, “A Combination of β-Aescin and Newly Synthesized Alkylamidobetaines as Modern Components Eradicating the Biofilms of Multidrug-Resistant Clinical Strains of Candida glabrata” (International Journal of Molecular Sciences, 2024)
# Experiments:
# Format in all cases: cell-based, Candida glabrata
# [1] = test system: C. glabrata ATCC 90030; experiment: MIC90/MFC, EUCAST broth microdilution; conditions: Nakaseomyces glabratus, ATCC90030, ATCC 90030; for MFC: read-out: MFC; for MIC90: read-out: MIC90
# [2] = test system: C. glabrata 2853 clinical strain; experiment: MIC90/MFC, EUCAST broth microdilution; conditions: Nakaseomyces glabratus; for MFC: read-out: MFC; for MIC90: read-out: MIC90
# [3] = test system: C. glabrata 2586 clinical strain; experiment: MIC90/MFC, EUCAST broth microdilution; conditions: Nakaseomyces glabratus; for MFC: read-out: MFC; for MIC90: read-out: MIC90
# [4] = test system: C. glabrata strains (ATCC 90030, 2586, 2853); experiment: Interaction of AABs with antifungal agents, statements for all tested strains together; conditions: all of the tested C. glabrata strains; AABs 3 µM
# [5] = test system: C. glabrata 2853; experiment: Interaction of AABs (3 µM) with antifungal agents, modified checkerboard; conditions: for Multiplicity factor (MF) with C9: C9 3 µM; for MIC90 of antimycotic combined with C9: C9 at constant 3 µM; for MIC90 of antimycotic combined with C9 / MIC90 of antimycotic combined with C11 / MIC90 of antimycotic combined with C13 / MIC90 of antimycotic combined with C15: dilutions in µg/mL; for Multiplicity factor (MF) with C11: C11 3 µM; for MIC90 of antimycotic combined with C11: C11 at constant 3 µM; for Multiplicity factor (MF) with C13: C13 3 µM; for MIC90 of antimycotic combined with C13: C13 at constant 3 µM; for Multiplicity factor (MF) with C15: C15 3 µM; for MIC90 of antimycotic combined with C15: C15 at constant 3 µM
# [6] = test system: C. glabrata ATCC 90030; experiment: FICI checkerboard, β-aescin with antifungal drugs; conditions: for FICI: combination with β-aescin
# [7] = test system: C. glabrata ATCC 90030; experiment: Interaction of AABs (3 µM) with antifungal agents, modified checkerboard; conditions: for Multiplicity factor (MF) with C9: C9 3 µM, |MF| = MIC90 alone/MIC90 with AAB; for MIC90 of antimycotic combined with C9: C9 at constant 3 µM; for MIC90 of antimycotic combined with C9 / MIC90 of antimycotic combined with C11 / MIC90 of antimycotic combined with C13 / MIC90 of antimycotic combined with C15: dilutions in µg/mL; for Multiplicity factor (MF) with C11: C11 3 µM; for MIC90 of antimycotic combined with C11: C11 at constant 3 µM; for Multiplicity factor (MF) with C13: C13 3 µM; for MIC90 of antimycotic combined with C13: C13 at constant 3 µM; for Multiplicity factor (MF) with C15: C15 3 µM; for MIC90 of antimycotic combined with C15: C15 at constant 3 µM
# [8] = test system: C. glabrata 2586; experiment: as above; conditions: for Multiplicity factor (MF) with C9: C9 3 µM; for MIC90 of antimycotic combined with C9: C9 at constant 3 µM; for MIC90 of antimycotic combined with C9 / MIC90 of antimycotic combined with C11 / MIC90 of antimycotic combined with C13 / MIC90 of antimycotic combined with C15: dilutions in µg/mL; for Multiplicity factor (MF) with C11: C11 3 µM; for MIC90 of antimycotic combined with C11: C11 at constant 3 µM; for Multiplicity factor (MF) with C13: C13 3 µM; for MIC90 of antimycotic combined with C13: C13 at constant 3 µM; for Multiplicity factor (MF) with C15: C15 3 µM; for MIC90 of antimycotic combined with C15: C15 at constant 3 µM
# [9] = test system: C. glabrata 2853; experiment: FICI checkerboard, β-aescin with antifungal drugs; conditions: for FICI: combination with β-aescin
# [10] = test system: C. glabrata 2586; experiment: FICI checkerboard, β-aescin with antifungal drugs; conditions: for FICI: combination with β-aescin
structure (smiles),measurement,setting,value
Nc1nc(=O)[nH]cc1F [5-Fluorocytosine],MFC,[1],1020 µg/mL
same,MIC90,[1],512 µg/mL
same,MFC,[2],512 µg/mL
same,MIC90,[2],256 µg/mL
same,MFC,[3],1020 µg/mL
same,MIC90,[3],512 µg/mL
same,MF with AABs,[4],1
same,Multiplicity factor (MF) with C9,[5],1
same,MIC90 of antimycotic combined with C9,[5],256
same,Multiplicity factor (MF) with C11,[5],1
same,MIC90 of antimycotic combined with C11,[5],256
same,Multiplicity factor (MF) with C13,[5],1
same,MIC90 of antimycotic combined with C13,[5],256
same,Multiplicity factor (MF) with C15,[5],1
same,MIC90 of antimycotic combined with C15,[5],256
same,FICI,[6],1.5
same,Multiplicity factor (MF) with C9,[7],1
same,MIC90 of antimycotic combined with C9,[7],512
same,Multiplicity factor (MF) with C11,[7],1
same,MIC90 of antimycotic combined with C11,[7],512
same,Multiplicity factor (MF) with C13,[7],1
same,MIC90 of antimycotic combined with C13,[7],512
same,Multiplicity factor (MF) with C15,[7],1
same,MIC90 of antimycotic combined with C15,[7],512
same,Multiplicity factor (MF) with C9,[8],1
same,MIC90 of antimycotic combined with C9,[8],512
same,Multiplicity factor (MF) with C11,[8],1
same,MIC90 of antimycotic combined with C11,[8],512
same,Multiplicity factor (MF) with C13,[8],1
same,MIC90 of antimycotic combined with C13,[8],512
same,Multiplicity factor (MF) with C15,[8],1
same,MIC90 of antimycotic combined with C15,[8],512
same,FICI,[9],1.5
same,FICI,[10],1.5
CC[C@H](C)C[C@H](C)CCCCCCCCC(=O)N[C@H]1C[C@@H](O)[C@@H](NCCN)NC(=O)[C@@H]2[C@@H](O)CCN2C(=O)[C@H]([C@H](O)CCN)NC(=O)[C@H]([C@H](O)[C@@H](O)c2ccc(O)cc2)NC(=O)[C@@H]2C[C@@H](O)CN2C(=O)[C@H]([C@@H](C)O)NC1=O [Caspofungin],MFC,[1],0.06 µg/mL
same,MIC90,[1],0.06 µg/mL
same,MFC,[2],0.06 µg/mL
same,MIC90,[2],0.03 µg/mL
same,MFC,[3],0.06 µg/mL
same,MIC90,[3],0.03 µg/mL
same,MF with AABs,[4],1
same,Type of interaction with β-AE (by FICI),[6],additive
same,FICI,[6],0.75
same,Multiplicity factor (MF) with C9,[7],1
same,MIC90 of antimycotic combined with C9,[7],0.06
same,Multiplicity factor (MF) with C11,[7],1
same,MIC90 of antimycotic combined with C11,[7],0.06
same,Multiplicity factor (MF) with C13,[7],1
same,MIC90 of antimycotic combined with C13,[7],0.06
same,Type of interaction with β-AE (by FICI),[9],additive
same,FICI,[9],0.75
same,Type of interaction with β-AE (by FICI),[10],additive
CC[C@@H]([C@H](C)O)n1ncn(-c2ccc(N3CCN(c4ccc(OC[C@@H]5CO[C@@](Cn6cncn6)(c6ccc(F)cc6F)C5)cc4)CC3)cc2)c1=O [Posaconazole],MFC,[1],1020 µg/mL
same,MIC90,[1],256 µg/mL
same,MFC,[2],256 µg/mL
same,MIC90,[2],1 µg/mL
same,MFC,[3],1020 µg/mL
same,MIC90,[3],512 µg/mL
same,Multiplicity factor (MF) with C9,[5],8 (8)
same,Multiplicity factor (MF) with C9,[5]; listed as posaconazole,8
same,MIC90 of antimycotic combined with C9,[5],8 (8)
same,Multiplicity factor (MF) with C11,[5],4 (4)
same,Multiplicity factor (MF) with C11,[5]; listed as posaconazole,4
same,MIC90 of antimycotic combined with C11,[5],4 (4)
same,Multiplicity factor (MF) with C13,[5],4 (4)
same,Multiplicity factor (MF) with C13,[5]; listed as posaconazole,4
same,MIC90 of antimycotic combined with C13,[5],4 (4)
same,Multiplicity factor (MF) with C15,[5],256 (256)
same,Multiplicity factor (MF) with C15,[5]; listed as posaconazole,256
same,MIC90 of antimycotic combined with C15,[5],256 (256)
same,Type of interaction with β-AE (by FICI),[6],additive
same,FICI,[6],1
same,FICI,[6]; listed as posaconazole,1.0
same,Multiplicity factor (MF) with C9,[7],two-fold
same,Multiplicity factor (MF) with C11,[7],8
same,MIC90 of antimycotic combined with C11,[7],32
same,Multiplicity factor (MF) with C13,[7],8
same,MIC90 of antimycotic combined with C13,[7],32
same,Multiplicity factor (MF) with C15,[7],two-fold
same,Multiplicity factor (MF) with C9,[8],1
same,Multiplicity factor (MF) with C9,[8]; listed as posaconazole,not observed
same,Multiplicity factor (MF) with C11,[8],2
same,MIC90 of antimycotic combined with C11,[8],256
same,Multiplicity factor (MF) with C13,[8],2
same,MIC90 of antimycotic combined with C13,[8],256
same,Multiplicity factor (MF) with C15,[8],1
same,Multiplicity factor (MF) with C15,[8]; listed as posaconazole,not observed
same,Type of interaction with β-AE (by FICI),[9],additive
same,FICI,[9],0.562
same,FICI,[10],1.002
C[C@@H](c1ncncc1F)[C@](O)(Cn1cncn1)c1ccc(F)cc1F [Voriconazole],MFC,[1],1020 µg/mL
same,MIC90,[1],512 µg/mL
same,MFC,[2],512 µg/mL
same,MIC90,[2],2 µg/mL
same,MFC,[3],1020 µg/mL
same,MIC90,[3],512 µg/mL
same,Multiplicity factor (MF) with C9,[5],1
same,Multiplicity factor (MF) with C9,[5]; listed as voriconazole,did not alter the level of activity
same,MIC90 of antimycotic combined with C9,[5],2
same,Multiplicity factor (MF) with C11,[5],2
same,Multiplicity factor (MF) with C11,[5]; listed as voriconazole,twice
same,MIC90 of antimycotic combined with C11,[5],1
same,Multiplicity factor (MF) with C13,[5],2
same,Multiplicity factor (MF) with C13,[5]; listed as voriconazole,twice
same,MIC90 of antimycotic combined with C13,[5],1
same,Multiplicity factor (MF) with C15,[5],128
same,MIC90 of antimycotic combined with C15,[5],256
same,Type of interaction with β-AE (by FICI),[6],additive
same,FICI,[6],1
same,FICI,[6]; listed as voriconazole,1.0
same,Multiplicity factor (MF) with C9,[7],64
same,MIC90 of antimycotic combined with C9,[7],8
same,Multiplicity factor (MF) with C11,[7],64
same,MIC90 of antimycotic combined with C11,[7],8
same,Multiplicity factor (MF) with C13,[7],64
same,MIC90 of antimycotic combined with C13,[7],8
same,Multiplicity factor (MF) with C15,[7],64
same,MIC90 of antimycotic combined with C15,[7],8
same,MIC90 of antimycotic combined with C9,[8],64
same,Multiplicity factor (MF) with C11,[8],64
same,MIC90 of antimycotic combined with C11,[8],8
same,Multiplicity factor (MF) with C13,[8],64
same,MIC90 of antimycotic combined with C13,[8],8
same,Multiplicity factor (MF) with C15,[8],64
same,MIC90 of antimycotic combined with C15,[8],8
same,FICI,[9],2.5
same,Type of interaction with β-AE (by FICI),[10],additive
